Here are results for 3 substances from patent US8470765B2, “Polypeptides and antibacterial or antiseptic use of same” (AnGes MG, Inc., priority 2009, dated 2013).

For experiment [1], the system named is Candida krusei NBRC1395. The settings on record: NBRC1395.
Experiment [2] deals with Pseudomonas aeruginosa 8 (clinical strain). The procedure:
(§1) Bacteria (Escherichia coli ATCC 25922, Pseudomonas aeruginosa ATCC 27853, Staphylococcus aureus ATCC29213, Klebsiella pneumoniae JCM 1662, Enterobacter cloacae JCM 1232, Enterobacter aerogenes JCM 1235 and Staphylococcus epidermidis JCM 2414) were inoculated to Mueller-Hinton broth: MHB or LB medium, and cultured at a temperature and period suited for each strain. From the thus obtained colonies, each strain was inoculated to a fresh liquid medium and cultured for 16 to 20 hours. Then an aliquot having a volume (10 to 50 appropriate to each strain was inoculated to a fresh liquid medium and cultured for 4 to 6 hours, followed by the measurement of the absorbance at 600 nm. After comparing the turbidity with McFarland #0.5, the resultant was diluted with a medium. Each strain was added to about 10^5 CFU/mL (final concentration).
(§2) Further, the antibacterial activities against the clinical strains collected and isolated from infected patients were also examined. The tests were carried out for two methicillin-resistant Staphylococcus (MRSA) (MRSA (i) and (ii)), two methicillin-sensitive Staphylococcus (MSSA) (MSSA (i) and (ii)), five Pseudomonas aeruginosa, Pseudomonas aeruginosa 1, Pseudomonas aeruginosa 6, Pseudomonas aeruginosa 8. Pseudomonas aeruginosa 9 and Pseudomonas aeruginosa 12, totally 9 clinical strains. The MRSA and MSSA clinical strains were tested by the same method as Staphylococcus aureus ATCC29213, and Pseudomonas clinical strains were tested by the same method as Pseudomonas aeruginosa ATCC 27853.
(§3) Each of the peptide solutions to be tested was diluted with MHB to obtain a solution of 128 μg/mL. This solution was serially diluted with the medium to prepare peptide-containing media having concentrations of 128, 64, 32, 16, 8.0, 4.0 and 2.0 μg/mL respectively. […] By dilution with sterilized purified water to 1.0 mg/mL, positive control-containing media having concentrations of 16, 8, 4, 2, 1.0, 0.25, 0.12 and 0.06 μg/mL, respectively for TOB; 0.5, 0.12 and 0.06 μg/mL, respectively, for OX; and 16, 8, 4, 2, 1.0, 0.25, 0.12, 0.06, 0.06, 0.03 and 0.008 μg/mL, respectively, for MEPM, were prepared.
(§4) To a 96-well microtiter plate, 0.1 mL of the inoculation solution and 0.1 mL of the peptide- or positive control-containing medium having the respective concentration were added, and cultured at 37° C. for 16 to 24 hours (or a time period suited for the growth of the respective strain). The well not containing the sample was used as a negative control. After the culturing, the growth was visually observed, and the minimum concentration at which the growth was inhibited was defined as the minimum growth inhibition concentration (MIC).
(§5) The medium used in this test for bacteria was Mueller-Hinton broth. Independent experiments were carried out twice or more for each strain.

In experiment [3] the test system is Micrococcus luteus NBRC13867.
The test system of experiment [4] is Pseudomonas aeruginosa 9 (clinical strain). In words: microbe, parasite or virus in culture. The conditions noted are these: Table 4; clinical strain; first/second value where not identical. The procedure: as §1, §2, §3, §4, §5
Experiment [5] deals with Pseudomonas aeruginosa 1 (clinical strain). In words: microbe, parasite or virus in culture. The settings on record: Table 4; clinical strain; first/second value where not identical. The procedure: as §1, §2, §3, §4, §5
Experiment [6] deals with Pseudomonas aeruginosa 6 (clinical strain). In words: microbe, parasite or virus in culture. The procedure:
as §1, §2, §3, §4, §5

Experiment [7] concerns Pseudomonas aeruginosa 12 (clinical strain). In words: microbe, parasite or virus in culture. The conditions noted are these: Table 4; clinical strain; first/second value where not identical. The procedure: as §1, §2, §3, §4, §5
Experiment [8] deals with Trichophyton rubrum NBRC9185.
For experiment [9], the system named is Alternaria alternata JCM5800. The conditions noted are these: JCM5800.
For experiment [10], the system named is Bacteroides fragilis JCM 11019. The conditions noted are these: JCM 11019.
In experiment [11] the test system is Bacillus subtilis NBRC3134. The conditions noted are these: NBRC3134.
The test system of experiment [12] is Acinetobacter baumanni JCM6841.
Experiment [13] concerns Aspergillus niger NBRC 9455.
The test system of experiment [14] is Actinobacillus actinomycetemcomitans JCM2434.
In experiment [15] the test system is Fusobacterium nucleatum JCM 11025.
The subject of experiment [16] is Rhizopus oryzae NBRC 31005. The settings on record: NBRC 31005.
The subject of experiment [17] is Enterobacter cloacae JCM 1232. It is filed as cell-based. The conditions noted are these: Table 4; two tests, first/second value where not identical. On the procedure:
Bacteria (Escherichia coli ATCC 25922, Pseudomonas aeruginosa ATCC 27853, Staphylococcus aureus ATCC29213, Klebsiella pneumoniae JCM 1662, Enterobacter cloacae JCM 1232, Enterobacter aerogenes JCM 1235 and Staphylococcus epidermidis JCM 2414) were inoculated to Mueller-Hinton broth: MHB or LB medium, and cultured at a temperature and period suited for each strain. From the thus obtained colonies, each strain was inoculated to a fresh liquid medium and cultured for 16 to 20 hours. Then an aliquot having a volume (10 to 50 appropriate to each strain was inoculated to a fresh liquid medium and cultured for 4 to 6 hours, followed by the measurement of the absorbance at 600 nm. After comparing the turbidity with McFarland #0.5, the resultant was diluted with a medium. Each strain was added to about 10^5 CFU/mL (final concentration). Each of the peptide solutions to be tested was diluted with MHB to obtain a solution of 128 μg/mL. […] As controls, tobramycin (TOB: aminoglucoside antibiotic), oxacillin (OX:β-lactam antibiotic), meropenem (MEPM: carbapenem antibiotic) and ciprofloxacin (new quinolone antibiotic) were used. […] To a 96-well microtiter plate, 0.1 mL of the inoculation solution and 0.1 mL of the peptide- or positive control-containing medium having the respective concentration were added, and cultured at 37° C. for 16 to 24 hours (or a time period suited for the growth of the respective strain). The well not containing the sample was used as a negative control. After the culturing, the growth was visually observed, and the minimum concentration at which the growth was inhibited was defined as the minimum growth inhibition concentration (MIC). The medium used in this test for bacteria was Mueller-Hinton broth. Independent experiments were carried out twice or more for each strain.

In experiment [18] the test system is Salmonella typhimurium JCM1652. The settings on record: JCM1652.
The mark [19] stands for this setting: Table 4, clinical strain, first/second value where not identical.
The mark [20] stands for this setting: Table 4, two tests, first/second value where not identical.

Read-outs that look alike come from different tables or passages of the source. No end group written: not given here. A value given as a limit tells only on which side of the number the result lay.

In turn, “KNLRRIIRKIIHIIKKYG-NH2 [Ovispirin-1, reference compound]” came in with an MIC Candida krusei in experiment [1] of 16 µg/mL. Also, the “MIC Pseudomonas aeruginosa 8” value in experiment [2] (setting [19]) was 32/64. The same substance yielded an MIC Micrococcus luteus in [3] of 2 µg/mL. Also, the “MIC Pseudomonas aeruginosa 9” value in [4] is listed as 32/128. In addition, the “MIC Pseudomonas aeruginosa 1” value in experiment [5] is listed as 16/64. The “MIC Pseudomonas aeruginosa 6” value in [6] (setting [19]) is 32/64. Besides, the “MIC Pseudomonas aeruginosa 12” value in experiment [7] is reported as 16/32. The MIC Trichophyton rubrum in [8] (NBRC9185) stood at 64 µg/mL. In addition, the MIC Alternaria alternata in experiment [9] turned out to be 64 µg/mL. In experiment [10], this substance returned an MIC Bacteroides fragilis of 1 µg/mL. In experiment [11], this substance returned an MIC Bacillus subtilis of 2 µg/mL. Also, the “MIC Acinetobacter baumanni” value in [12] (setting [20]) is reported as 4/8. This substance also gave an MIC Aspergillus niger in experiment [13] (NBRC 9455) of 32 µg/mL. In addition, in [14], the MIC Actinobacillus actinomycetemcomitans was 128 µg/mL. For the same substance, in [15] (setting [20]), the “MIC Fusobacterium nucleatum” value was 2/4. Moreover, the MIC Rhizopus oryzae in experiment [16] was > 128 µg/mL. In addition, the “MIC Enterobacter cloacae” value in experiment [17] is 32/64. In experiment [18], the MIC Salmonella Typhimurium turned out to be 16 µg/mL.

In turn, RLKRMRKRLKRKLRLW-NH2 [SRP-17] displayed an MIC Candida krusei in experiment [1] of 32 µg/mL. Besides, in [2] (setting [19]), the “MIC Pseudomonas aeruginosa 8” value was 64/128. In [3], this substance showed an MIC Micrococcus luteus of 1 µg/mL. In addition, the “MIC Pseudomonas aeruginosa 9” value in experiment [4] is on record as 64/128. Also, the “MIC Pseudomonas aeruginosa 1” value in experiment [5] is recorded as 32/64. Further, the “MIC Pseudomonas aeruginosa 6” value in experiment [6] (setting [19]) is given as 32/64. Besides, the “MIC Pseudomonas aeruginosa 12” value in experiment [7] is given as 16/64. Moreover, the “MIC Trichophyton rubrum” value in [8] (setting [20]) was 64/32. Moreover, in [9], the MIC Alternaria alternata worked out at 32 µg/mL. In addition, in experiment [10], the MIC Bacteroides fragilis was > 128 µg/mL. The substance also gave an MIC Bacillus subtilis in [11] of 8 µg/mL. Moreover, in experiment [12] (JCM6841), the MIC Acinetobacter baumanni is 128 µg/mL. In addition, in [13] (setting [20]), the “MIC Aspergillus niger” value was 8/16. Further, in experiment [14], the MIC Actinobacillus actinomycetemcomitans is > 128 µg/mL. In addition, the MIC Fusobacterium nucleatum in [15] (JCM 11025) is > 128 µg/mL. The same substance gave an MIC Rhizopus oryzae in experiment [16] of 8 µg/mL. The “MIC Enterobacter cloacae” value in experiment [17] is on record as 128< mg/mL. Further, the MIC Salmonella Typhimurium in [18] came out at 16 µg/mL.

In experiment [1], RLKRMRKRLKRKLRLWHRKRYK-NH2 [SRP-8] showed an MIC Candida krusei of 32 µg/mL. This substance came in with an MIC Pseudomonas aeruginosa 8 in experiment [2] (8 (clinical strain)) of 16 µg/mL. Besides, the MIC Micrococcus luteus in experiment [3] is 2 µg/mL. In [4], the “MIC Pseudomonas aeruginosa 9” value was 16/64. Moreover, the “MIC Pseudomonas aeruginosa 1” value in experiment [5] was 16/32. In experiment [6] (6 (clinical strain)), this substance registered an MIC Pseudomonas aeruginosa 6 of 16 µg/mL. Moreover, the “MIC Pseudomonas aeruginosa 12” value in [7] was 16/32. The same substance yielded an MIC Trichophyton rubrum in experiment [8] (NBRC9185) of 128 µg/mL. The substance further registered an MIC Alternaria alternata in experiment [9] of 32 µg/mL. Moreover, the MIC Bacteroides fragilis in experiment [10] was > 128 µg/mL. This substance showed an MIC Bacillus subtilis in [11] of 8 µg/mL. For the same substance, in [12] (JCM6841), the MIC Acinetobacter baumanni amounted to 128 µg/mL. Also, the “MIC Aspergillus niger” value in experiment [13] (setting [20]) was 16/32. Further, the MIC Actinobacillus actinomycetemcomitans in experiment [14] was > 128 µg/mL. Besides, the MIC Fusobacterium nucleatum in experiment [15] (JCM 11025) was > 128 µg/mL. Further, in experiment [16], the MIC Rhizopus oryzae was 8 µg/mL. The “MIC Enterobacter cloacae” value in [17] was 128< mg/mL. In [18], this substance registered an MIC Salmonella Typhimurium of 64 µg/mL.
